In US20230278972A1, “SUBSTITUTED HALOALKYL SULFONANILIDE HERBICIDES” (FMC Corporation, priority 2020, published 2023):

Tests used:
Format in all cases: in vivo
[1] = tested on: barnyardgrass (Echinochloa crus-galli); experiment: Test A preemergence, barnyardgrass; settings: Preemergence; for Plant response rating, Barnyardgrass: 0 to 100 scale (0 no effect, 100 complete control)
Summary of the method: (§1)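 Compounds in non-phytotoxic solvent with surfactant. Soil: loam/sand. Preemergence via directed soil spray after seeding; postemergence on seedlings 2–10 cm, one- to two-leaf.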

kochia (Bassia scoparia) [2] = experiment: Test A preemergence, kochia; settings: Preemergence; for Plant response rating, Kochia: 0 to 100 scale (0 no effect, 100 complete control); for Kochia plant response rating: visual injury on 0 to 100 scale (0 no effect, 100 complete control), approximately 10 days
Summary of the method: as §1

[3] = tested on: ragweed (common ragweed, Ambrosia artemisiifolia); experiment: Test A preemergence, ragweed; settings: Preemergence; for Plant response rating, Ragweed: 0 to 100 scale (0 no effect, 100 complete control); for Ragweed plant response rating: visual injury on 0 to 100 scale (0 no effect, 100 complete control), approximately 10 days
Summary of the method: as §1

[4] = tested on: Ryegrass, Italian (Italian ryegrass, Lolium multiflorum); experiment: Test A preemergence, Ryegrass, Italian; settings: Preemergence; for Plant response rating, Ryegrass, Italian: 0 to 100 scale (0 no effect, 100 complete control); for Ryegrass, Italian plant response rating: visual injury on 0 to 100 scale (0 no effect, 100 complete control), approximately 10 days
Summary of the method: as §1

[5] = tested on: Foxtail, Giant (giant foxtail, Setaria faberi); experiment: Test A preemergence, Foxtail, Giant; settings: Preemergence; for Plant response rating, Foxtail, Giant: 0 to 100 scale (0 no effect, 100 complete control); for Foxtail, Giant plant response rating: visual injury on 0 to 100 scale (0 no effect, 100 complete control), approximately 10 days
Summary of the method: as §1

[6] = tested on: pigweed (Amaranthus retroflexus); experiment: Test A preemergence, pigweed; settings: for Plant response rating, Pigweed: 0 to 100 scale (0 no effect, 100 complete control); for Pigweed plant response rating: visual injury on 0 to 100 scale (0 no effect, 100 complete control), approximately 10 days
Summary of the method: (§2)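 Greenhouse pot test in a loam–sand blend; compounds delivered in a non-phytotoxic solvent carrying a surfactant, applied either as a directed spray to soil at seeding or over seedlings 2 to 10 cm high with one to two leaves.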

[7] = tested on: barnyardgrass (Echinochloa crus-galli); experiment: Test A postemergence, barnyardgrass; settings: Postemergence, 0 to 100 scale (0 no effect, 100 complete control); for Barnyardgrass plant response rating: visual injury vs untreated controls after approx. 10 days
Summary of the method: as §2

kochia (Bassia scoparia) [8] = experiment: Test A postemergence, kochia; settings: Postemergence, 0 to 100 scale (0 no effect, 100 complete control); for Kochia plant response rating: visual injury vs untreated controls after approx. 10 days
Summary of the method: as §1

[9] = tested on: ragweed (common ragweed, Ambrosia artemisiifolia); experiment: Test A postemergence, ragweed; settings: Postemergence, 0 to 100 scale (0 no effect, 100 complete control); for Ragweed plant response rating: visual injury vs untreated controls after approx. 10 days
Summary of the method: as §1

[10] = tested on: Ryegrass, Italian (Italian ryegrass, Lolium multiflorum); experiment: Test A postemergence, Ryegrass, Italian; settings: Postemergence, 0 to 100 scale (0 no effect, 100 complete control); for Ryegrass, Italian plant response rating: visual injury vs untreated controls after approx. 10 days
Summary of the method: as §1

[11] = tested on: Foxtail, Giant (giant foxtail, Setaria faberi); experiment: Test A postemergence, Foxtail, Giant; settings: Postemergence, 0 to 100 scale (0 no effect, 100 complete control); for Foxtail, Giant plant response rating: visual injury vs untreated controls after approx. 10 days
Summary of the method: as §1

[12] = tested on: pigweed (Amaranthus retroflexus); experiment: Test A postemergence, pigweed; settings: Postemergence, 0 to 100 scale (0 no effect, 100 complete control); for Pigweed plant response rating: visual injury vs untreated controls after approx. 10 days
Summary of the method: as §1

[13] = tested on: wheat (Triticum aestivum); experiment: Test A postemergence, wheat; settings: Postemergence, 0 to 100 scale (0 no effect, 100 complete control); for Wheat plant response rating: visual injury vs untreated controls after approx. 10 days
Summary of the method: as §2

corn (Zea mays) = experiment: Test A postemergence, corn; settings: Postemergence, 0 to 100 scale (0 no effect, 100 complete control); for Corn plant response rating: visual injury vs untreated controls after approx. 10 days
Summary of the method: as §1

[14] = tested on: blackgrass (Alopecurus myosuroides); experiment: Test A postemergence, blackgrass; settings: Postemergence, 0 to 100 scale (0 no effect, 100 complete control); for Blackgrass plant response rating: visual injury vs untreated controls after approx. 10 days
Summary of the method: as §1

[15] = tested on: galium (catchweed bedstraw, Galium aparine); experiment: Test A postemergence, galium; settings: Postemergence, 0 to 100 scale (0 no effect, 100 complete control); for Galium plant response rating: visual injury vs untreated controls after approx. 10 days
Summary of the method: as §2

[16] = 125 g ai/ha, visual injury, approx. 10 days
[17] = 500 g ai/ha, visual injury approx. 10 days

SMILES | Plant response rating, Barnyardgrass [1, 16] | Plant response rating, Barnyardgrass ([1]; 500 g ai/ha) | Plant response rating, Kochia (kochia (Bassia scoparia) [2]; [16]) | Kochia plant response rating (kochia (Bassia scoparia) [2]; 500 g ai/ha) | Plant response rating, Ragweed [3, 16] | Ragweed plant response rating ([3]; 500 g ai/ha) | Plant response rating, Ryegrass, Italian [4, 16] | Ryegrass, Italian plant response rating ([4]; 500 g ai/ha) | Plant response rating, Foxtail, Giant [5, 16] | Foxtail, Giant plant response rating ([5]; 500 g ai/ha) | Plant response rating, Pigweed [6, 16] | Pigweed plant response rating ([6]; 500 g ai/ha) | Plant response rating, Barnyardgrass ([7]; 125 g ai/ha) | Barnyardgrass plant response rating ([7]; 500 g ai/ha) | Plant response rating, Kochia (kochia (Bassia scoparia) [8]; 125 g ai/ha) | Kochia plant response rating (kochia (Bassia scoparia) [8]; 500 g ai/ha) | Plant response rating, Ragweed ([9]; 125 g ai/ha) | Ragweed plant response rating ([9]; 500 g ai/ha) | Plant response rating, Ryegrass, Italian ([10]; 125 g ai/ha) | Ryegrass, Italian plant response rating ([10]; 500 g ai/ha) | other results
Cc1cc(F)c(C(=O)N2CCC(C#N)CC2)cc1NS(=O)(=O)C(F)(F)F [Compound 236] | 0 | 0 | 20 | 70 | 50 | 80 | 20 | 60 | 30 | 60 | 60 | 90 | 50 | 60 | 30 | 50 | 40 | 80 | 30 | 60 | Plant response rating, Foxtail, Giant ([11]; 125 g ai/ha): 20; Foxtail, Giant plant response rating ([11]; 500 g ai/ha): 80; Plant response rating, Pigweed ([12]; 125 g ai/ha): 40; Pigweed plant response rating ([12]; 500 g ai/ha): 60; Plant response rating, Wheat ([13]; 125 g ai/ha): 0; Wheat plant response rating ([13]; 500 g ai/ha): 0; Plant response rating, Corn (corn (Zea mays); 125 g ai/ha): 0; Corn plant response rating (corn (Zea mays); 500 g ai/ha): 20; Plant response rating, Blackgrass ([14]; 125 g ai/ha): 0; Blackgrass plant response rating ([14]; 500 g ai/ha): 20; Plant response rating, Galium ([15]; 125 g ai/ha): 40; Galium plant response rating ([15]; 500 g ai/ha): 70
Cc1cc(Cl)c(C(=O)N2CCCCC2)cc1N(S(=O)(=O)C(F)(F)F)S(=O)(=O)C(F)(F)F [Compound 253] | 60 |  | 70 | 80 | 40 | 40 | 60 | 100 | 100 | 100 | 100 | 100 | 0 |  | 30 |  | 30 |  | 0 |  | Barnyardgrass plant response rating ([1]; 500 g ai/ha, visual injury on 0 to 100 scale (0 no effect, 100 complete control), approximately 10 days): 70; Plant response rating, Barnyardgrass [7, 17]: 20; Plant response rating, Kochia (kochia (Bassia scoparia) [8]; [17]): 60; Plant response rating, Ragweed [9, 17]: 50; Plant response rating, Ryegrass, Italian [10, 17]: 0; Plant response rating, Foxtail, Giant ([11]; 125 g ai/ha): 0; Plant response rating, Foxtail, Giant [11, 17]: 0; Plant response rating, Pigweed ([12]; 125 g ai/ha): 50; Plant response rating, Pigweed [12, 17]: 80; Plant response rating, Wheat ([13]; 125 g ai/ha): 0; Plant response rating, Wheat [13, 17]: 0; Plant response rating, Corn (corn (Zea mays); 125 g ai/ha): 0; Plant response rating, Corn (corn (Zea mays); [17]): 0; Plant response rating, Blackgrass ([14]; 125 g ai/ha): 0; Plant response rating, Blackgrass [14, 17]: 0; Plant response rating, Galium ([15]; 125 g ai/ha): 70; Plant response rating, Galium [15, 17]: 90
Cc1cc(C)c(-n2nccc(C)c2=O)cc1NS(=O)(=O)C(F)(F)F [Compound 84] |  | 80 |  |  |  |  |  |  |  |  |  |  |  | 80 |  | 0 |  | 40 |  | 50 | Plant response rating, Kochia (kochia (Bassia scoparia) [2]; 500 g ai/ha): 70; Plant response rating, Ragweed ([3]; 500 g ai/ha): 0; Plant response rating, Ryegrass, Italian ([4]; 500 g ai/ha): 90; Plant response rating, Foxtail, Giant ([5]; 500 g ai/ha): 90; Plant response rating, Pigweed ([6]; 500 g ai/ha): 70; Foxtail, Giant plant response rating ([11]; 500 g ai/ha): 50; Pigweed plant response rating ([12]; 500 g ai/ha): 30; Wheat plant response rating ([13]; 500 g ai/ha): 70; Corn plant response rating (corn (Zea mays); 500 g ai/ha): 60; Blackgrass plant response rating ([14]; 500 g ai/ha): 20; Galium plant response rating ([15]; 500 g ai/ha): 50
